# Measured values: patent US20120171126A1, “NOVEL [3,2-c] HETEROARYL STEROIDS AS GLUCOCORTICOID RECEPTOR AGONISTS COMPOSITIONS AND USES THEREOF” (priority 2009, published 2012)
# Test system: IL-8
# Assay: Glucocorticoid transrepression assay, IL-8 inhibition (TR)
# Assay type: cell-based
# Conditions: Homo sapiens; Table 1; NCl-H292 cells, TNFα 10 ng/ml; read-out: IL-8 inhibition (TR) Emax % inhibition
# Protocol: Human Lung epithelial cell line NCl-H292 cells were dissociated from stock flask using 0.05% trypsin/0.53 mM EDTA. Cells were suspended in complete medium and counted. Cells were plated in 96-well flat-bottom plates at 20K cells /well in 0.2 ml/well. Plates were incubated for 24-48 hours until cells were between 75-90% confluent. Medium was aspirated and replaced with medium containing various concentrations of steroids or antagonists. After 1 hour incubation at 37°, TNFα (10 ng/ml final concentration in 0.2 ml) was added and the cells incubated overnight. Control wells with and without TNF were included on each plate, as well as wells with TNF in addition to a maximum (10 μM) concentration of dexamethasone. The cell culture medium was sampled and IL-6 and IL-8 cytokine production was measured using the MSD Multi-Spot immunoassay.
row,SMILES,Emax [%]
1,CC12Cc3cnn(C(C)(C)C)c3C=C1CCC1C2[C@@H](O)CC2(C)C1CC[C@]2(O)C(=O)CSc1ccccn1 (some centres unmarked) [Compound 66],< 60
2,CC12Cc3cnn(CCC#N)c3C=C1CCC1C2[C@@H](O)CC2(C)C1CC[C@]2(O)C(=O)CSc1nc2cccnc2s1 (some centres unmarked) [Compound 56],< 60
3,CC12Cc3cnn(-c4nc5ccccc5[nH]4)c3C=C1CCC1C2[C@@H](O)CC2(C)C1CC[C@]2(O)C(=O)CSc1nc2ccccc2s1 (some centres unmarked) [Compound 83],< 60
4,Cc1ccccc1-n1ncc2c1C=C1CCC3C([C@@H](O)CC4(C)C3CC[C@]4(O)C(=O)CSc3nc4ccccc4[nH]3)C1(C)C2 (some centres unmarked) [Compound 82],< 60
5,CC12Cc3cnn(C(C)(C)C)c3C=C1CCC1C2[C@@H](O)CC2(C)C1CC[C@]2(O)C(=O)CSc1nc2cccnc2s1 (some centres unmarked) [Compound 64],< 60
6,CC12Cc3cnn(C4CCOCC4)c3C=C1CCC1C2[C@@H](O)CC2(C)C1CC[C@]2(O)C(=O)CSc1nc2ccccc2[nH]1 (some centres unmarked) [Compound 75],< 60
7,CC12Cc3cnn(C(C)(C)C)c3C=C1CCC1C2[C@@H](O)CC2(C)C1CC[C@]2(O)C(=O)CSc1ccc2ccccc2n1 (some centres unmarked) [Compound 67],< 60
8,CC12Cc3cnn(C(C)(C)C)c3C=C1CCC1C2[C@@H](O)CC2(C)C1CC[C@]2(O)C(=O)CSc1nc2ccccc2s1 (some centres unmarked) [Compound 62],< 60
9,Cn1cnnc1SCC(=O)[C@@]1(O)CCC2C3CCC4=Cc5c(cnn5-c5ccccn5)CC4(C)C3[C@@H](O)CC21C (some centres unmarked) [Compound 41],< 60
10,Cn1ncc2c1C=C1CCC3C([C@@H](O)CC4(C)C3CC[C@]4(O)C(=O)CSc3nc4ccccc4s3)C1(C)C2 (some centres unmarked) [Compound 21],< 60
11,CC(C)(C)c1ccc(-n2ncc3c2C=C2CCC4C([C@@H](O)CC5(C)C4CC[C@]5(O)C(=O)CSc4nc5cccnc5s4)C2(C)C3)cc1 (some centres unmarked) [Compound 92],< 60

# Same assay, conditions: Homo sapiens; Table 2; NCl-H292 cells, TNFα 10 ng/ml
row,SMILES,IC50 [nM]
1,CC12Cc3cnn(-c4ccc(F)cc4)c3C=C1CCC1C2[C@@H](O)CC2(C)C1CC[C@]2(O)C(=O)Nc1nc2ccc(S(N)(=O)=O)cc2s1 (some centres unmarked) [Compound 18],0.06 to 20
2,CC12Cc3cnn(-c4ccc(F)cc4)c3C=C1CCC1C2[C@@H](O)CC2(C)C1CC[C@]2(O)C(=O)N[C@H](CO)CCc1ccccc1 (some centres unmarked) [Compound 19],0.06 to 20
3,CC12Cc3cnn(-c4ccc(F)cc4)c3C=C1CCC1C2[C@@H](O)CC2(C)C1CC[C@]2(OC(=O)c1ccco1)C(=O)NCCc1cnccn1 (some centres unmarked) [Compound 17],0.06 to 20
4,C[C@]12Cc3cnn(-c4ccc(F)cc4)c3C=C1CCC1C2[C@@H](O)C[C@@]2(C)C1CC[C@]2(O)C(=O)NC1(c2ncc(F)cc2F)CC1 (some centres unmarked) [Compound 8],0.06 to 20
5,C[C@H](NC(=O)[C@@]1(OC(=O)c2ccco2)CCC2C3CCC4=Cc5c(cnn5-c5ccc(F)cc5)CC4(C)C3[C@@H](O)CC21C)c1ccccc1 (some centres unmarked) [Compound 16],0.06 to 20
6,CC12Cc3cnn(-c4ccc(F)cc4)c3C=C1CCC1C2[C@@H](O)CC2(C)C1CC[C@]2(O)C(=O)NCc1cn(Cc2ccccc2)nn1 (some centres unmarked) [Compound 14],0.06 to 20
7,Cn1c(NC(=O)[C@@]2(O)CCC3C4CCC5=Cc6c(cnn6-c6ccc(F)cc6)CC5(C)C4[C@@H](O)CC32C)nc2ccccc21 (some centres unmarked) [Compound 21],0.06 to 20

# Same assay, conditions: Homo sapiens; Table 2; NCl-H292 cells, TNFα 10 ng/ml; read-out: IL-8 inhibition (TR) Emax % inhibition
row,SMILES,Emax [%]
1,CC12Cc3cnn(-c4ccc(F)cc4)c3C=C1CCC1C2[C@@H](O)CC2(C)C1CC[C@]2(O)C(=O)Nc1nc2ccc(S(N)(=O)=O)cc2s1 (some centres unmarked) [Compound 18],> 80
2,CC12Cc3cnn(-c4ccc(F)cc4)c3C=C1CCC1C2[C@@H](O)CC2(C)C1CC[C@]2(O)C(=O)N[C@H](CO)CCc1ccccc1 (some centres unmarked) [Compound 19],> 80
3,CC12Cc3cnn(-c4ccc(F)cc4)c3C=C1CCC1C2[C@@H](O)CC2(C)C1CC[C@]2(OC(=O)c1ccco1)C(=O)NCCc1cnccn1 (some centres unmarked) [Compound 17],> 80
4,C[C@]12Cc3cnn(-c4ccc(F)cc4)c3C=C1CCC1C2[C@@H](O)C[C@@]2(C)C1CC[C@]2(O)C(=O)NC1(c2ncc(F)cc2F)CC1 (some centres unmarked) [Compound 8],> 80
5,C[C@H](NC(=O)[C@@]1(OC(=O)c2ccco2)CCC2C3CCC4=Cc5c(cnn5-c5ccc(F)cc5)CC4(C)C3[C@@H](O)CC21C)c1ccccc1 (some centres unmarked) [Compound 16],> 80
6,CC12Cc3cnn(-c4ccc(F)cc4)c3C=C1CCC1C2[C@@H](O)CC2(C)C1CC[C@]2(O)C(=O)NCc1cn(Cc2ccccc2)nn1 (some centres unmarked) [Compound 14],> 80
7,Cn1c(NC(=O)[C@@]2(O)CCC3C4CCC5=Cc6c(cnn6-c6ccc(F)cc6)CC5(C)C4[C@@H](O)CC32C)nc2ccccc21 (some centres unmarked) [Compound 21],> 80

# Same assay, conditions: Homo sapiens; Table 3; NCl-H292 cells, TNFα 10 ng/ml; read-out: IL-8 inhibition (TR) Emax % inhibition
row,SMILES,Emax [%]
1,C[C@]12Cc3cnoc3C=C1CCC1C2[C@@H](O)C[C@@]2(C)C1CC[C@]2(O)C(=O)CSc1ccc2ccccc2n1 (some centres unmarked) [Compound 4],< 60
2,C[C@]12Cc3cnoc3C=C1CCC1C2[C@@H](O)C[C@@]2(C)C1CC[C@]2(O)C(=O)CSc1nc2ccccc2s1 (some centres unmarked) [Compound 6],< 60
3,C[C@]12Cc3cnoc3C=C1CCC1C2[C@@H](O)C[C@@]2(C)C1CC[C@]2(O)C(=O)CSc1ccccn1 (some centres unmarked) [Compound 3],< 60
4,C[C@]12Cc3cnoc3C=C1CCC1C2[C@@H](O)C[C@@]2(C)C1CC[C@]2(O)C(=O)CSc1cnc2ccccc2n1 (some centres unmarked) [Compound 2],< 60

# Same assay, conditions: Homo sapiens; Table 5; NCl-H292 cells, TNFα 10 ng/ml
row,SMILES,IC50 [nM]
1,C[C@]12Cc3cnn(-c4ccc(F)cc4)c3C=C1CCC1C2[C@@H](O)C[C@@]2(C)C1CC[C@]2(O)C(=O)CN1CCN(c2nc3ccccc3o2)CC1 (some centres unmarked) [Compound 1],0.06 to 20
2,C[C@]12Cc3cnn(-c4ccc(F)cc4)c3C=C1CCC1C2[C@@H](O)C[C@@]2(C)C1CC[C@]2(O)C(=O)CN1CCN(Cc2ccc(C(F)(F)F)cc2)CC1 (some centres unmarked) [Compound 5],0.06 to 20

# Same assay, conditions: Homo sapiens; Table 5; NCl-H292 cells, TNFα 10 ng/ml; read-out: IL-8 inhibition (TR) Emax % inhibition
row,SMILES,Emax [%]
1,C[C@]12Cc3cnn(-c4ccc(F)cc4)c3C=C1CCC1C2[C@@H](O)C[C@@]2(C)C1CC[C@]2(O)C(=O)CN1CCN(c2nc3ccccc3o2)CC1 (some centres unmarked) [Compound 1],> 80
2,C[C@]12Cc3cnn(-c4ccc(F)cc4)c3C=C1CCC1C2[C@@H](O)C[C@@]2(C)C1CC[C@]2(O)C(=O)CN1CCN(Cc2ccc(C(F)(F)F)cc2)CC1 (some centres unmarked) [Compound 5],> 80

# Same assay, conditions: Homo sapiens; Table 7; NCl-H292 cells, TNFα 10 ng/ml
row,SMILES,IC50 [nM]
1,Cc1cnn(CC(=O)[C@@]2(O)CCC3C4CCC5=Cc6c(cnn6-c6ccc(F)cc6)CC5(C)C4[C@@H](O)CC32C)c1 (some centres unmarked) [Compound 4],0.06 to 20

# Same assay, conditions: Homo sapiens; Table 7; NCl-H292 cells, TNFα 10 ng/ml; read-out: IL-8 inhibition (TR) Emax % inhibition
row,SMILES,Emax [%]
1,Cc1cnn(CC(=O)[C@@]2(O)CCC3C4CCC5=Cc6c(cnn6-c6ccc(F)cc6)CC5(C)C4[C@@H](O)CC32C)c1 (some centres unmarked) [Compound 4],> 80
